According to patent US20200069648A1, “HALOALLYLAMINE PYRAZOLE DERIVATIVE INHIBITORS OF LYSYL OXIDASES AND USES THEREOF” (Pharmaxis Ltd., priority 2017, published 2020):
Where a name gives a salt, the structure may show the parent alone.

Key:
Recombinant human MAO-B = target: T1, Recombinant human MAO-B (Homo sapiens, UniProt P27338); assay: Human recombinant MAO-B inhibition; assay type: biochemical; details: benzylamine 100 μM
T1 construct: purchased Sigma Aldrich
T1 sequence (P27338 1-520): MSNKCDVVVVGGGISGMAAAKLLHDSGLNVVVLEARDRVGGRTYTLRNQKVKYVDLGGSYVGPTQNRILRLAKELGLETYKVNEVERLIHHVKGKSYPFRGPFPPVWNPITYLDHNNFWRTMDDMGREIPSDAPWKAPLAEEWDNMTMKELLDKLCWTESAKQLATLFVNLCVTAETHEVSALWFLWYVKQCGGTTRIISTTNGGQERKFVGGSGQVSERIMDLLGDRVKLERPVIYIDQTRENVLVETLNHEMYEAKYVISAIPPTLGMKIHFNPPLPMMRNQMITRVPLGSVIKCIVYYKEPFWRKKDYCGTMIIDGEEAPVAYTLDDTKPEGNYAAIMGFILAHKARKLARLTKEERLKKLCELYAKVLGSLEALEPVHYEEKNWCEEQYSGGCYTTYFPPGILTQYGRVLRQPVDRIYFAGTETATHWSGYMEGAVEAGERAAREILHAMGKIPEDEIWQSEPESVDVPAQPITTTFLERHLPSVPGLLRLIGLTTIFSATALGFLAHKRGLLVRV
Procedure: Method to Determine the Ability of Compounds of Formula I to Inhibit Human Recombinant MAO-B
The specificity of the compounds of this invention was tested by determining their ability to inhibit MAO-B activities in vitro. Recombinant human MAO-B (0.06 mg/mL; Sigma Aldrich) was used as source of MAO-B enzyme activities. The assay was performed in a similar way as for human SSAO/VAP-1 (Example 46) except, the substrate benzylamine was used at 100 μM.

[1] = target: T2, human recombinant SSAO/VAP-1 (Homo sapiens, UniProt Q16853); assay: Human recombinant SSAO/VAP-1 amine oxidase inhibition; assay type: biochemical; details: 30 min preincubation at 37° C., 600 μM benzylamine
T2 construct: a cloned cDNA template corresponding to residues 34-763 of human SSAO/VAP-1; TEV cleavage site (N); made in house
T2 sequence (Q16853 34-763): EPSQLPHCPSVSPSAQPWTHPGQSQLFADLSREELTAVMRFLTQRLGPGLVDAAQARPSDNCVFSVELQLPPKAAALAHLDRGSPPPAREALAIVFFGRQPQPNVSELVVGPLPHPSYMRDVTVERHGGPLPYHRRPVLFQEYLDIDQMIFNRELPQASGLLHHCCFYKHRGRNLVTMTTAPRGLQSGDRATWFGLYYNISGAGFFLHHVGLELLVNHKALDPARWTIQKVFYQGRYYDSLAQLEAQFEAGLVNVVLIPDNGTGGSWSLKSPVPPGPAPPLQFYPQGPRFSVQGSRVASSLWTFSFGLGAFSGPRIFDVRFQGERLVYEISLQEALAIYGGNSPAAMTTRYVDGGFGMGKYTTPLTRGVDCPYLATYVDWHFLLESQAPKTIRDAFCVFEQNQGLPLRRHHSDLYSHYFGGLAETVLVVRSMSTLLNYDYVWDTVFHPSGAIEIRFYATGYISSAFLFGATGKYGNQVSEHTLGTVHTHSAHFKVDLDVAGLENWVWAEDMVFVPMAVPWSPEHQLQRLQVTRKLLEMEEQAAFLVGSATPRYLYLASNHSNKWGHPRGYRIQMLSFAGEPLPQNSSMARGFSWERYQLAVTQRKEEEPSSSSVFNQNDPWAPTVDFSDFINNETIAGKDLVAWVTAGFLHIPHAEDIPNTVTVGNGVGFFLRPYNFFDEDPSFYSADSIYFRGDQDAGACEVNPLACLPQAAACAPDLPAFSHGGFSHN
Procedure: Method to Determine the Ability of Compounds of Formula I to Inhibit Human Recombinant SSAO/VAP-1
Human recombinant SSAO/VAP-1 amine oxidase activity was determined using the coupled colorimetric method as described for monoamine oxidase, copper-containing amine oxidases and related enzymes (Holt A. and Palcic M., A peroxidase-coupled continuous absorbance plate-reader assay for flavin monoamine oxidases, copper-containing amine oxidases and related enzymes. Nat Protoc 2006; 1: 2498-2505). Briefly, a cloned cDNA template corresponding to residues 34-763 of human SSAO/VAP-1, and incorporating a mouse Ig kappa (κ) signal sequence, N-terminal flag epitope tag and tobacco etch virus (TEV) cleavage site, was assembled in a mammalian expression vector (pLO-CMV) by Geneart AG. This vector containing human SSAO/VAP-1 residues was transfected into CHO-K1 glycosylation mutant cell line, Lec 8. A clone stably expressing human SSAO/VAP-1 was isolated and cultured in large scale. Active human SSAO/VAP-I was purified and recovered using immunoaffinity chromatography. This was used as the source for SSAO/VAP-1 activity. A high-throughput colorimetric assay was developed using either 96 or 384 well format. Briefly, in a standard 96 well plate assay 50 μL of purified human SSAO/VAP-1 (0.25 μg/mL) in 0.1 M sodium phosphate buffer (pH 7.4) was added into each well. Test compounds were dissolved in DMSO and tested in a Concentration Response Curve (CRC) with 4-11 data points, typically in the micromolar or nanomolar range after incubation with human SSAO/VAP-1 for 30 min at 37° C. After 30 min incubation, 50 μL of the reaction mixture containing 600 μM benzylamine (Sigma Aldrich), 120 μM Amplex Red (Sigma Aldrich) and 1.5 U/mL horseradish peroxidase (Sigma Aldrich) prepared in 0.1 M sodium phosphate buffer (pH 7.4) were added to the corresponding well. The fluorescence unit (RFU) was read every 2.5 min for 30 min at 37° C. excitation 565 nm and emission 590 (Optima; BMG labtech). The slope of the kinetics for each well was calculated using MARS data analysis software (BMG labtech) and this value was used to deduce the IC50 value (Dotmatics).

Row | Compound | IC50 (Recombinant human MAO-B) | IC50 [1]
1 | CNS(=O)(=O)c1ccc(Cn2nc(C)c(C/C(F)=C/CN)c2C)c(C(F)(F)F)c1 [Compound 23, (Z)-4-((4-(4-amino-2-fluorobut-2-en-1-yl)-3,5-dimethyl-1H-pyrazol-1-yl)methyl)-N-methyl-3-(trifluoromethyl)benzenesulfonamide hydrochloride] | > 30 µM | > 30 µM
2 | Cc1nn(C/C(F)=C/CN)c(C(=O)O)c1Cc1ccc(S(=O)(=O)N(C)C)cc1 [Compound 30, (Z)-1-(4-amino-2-fluorobut-2-enyl)-4-(4-(N,N-dimethylsulfamoyl)benzyl)-3-methyl-1H-pyrazole-5-carboxylic acid hydrochloride] | > 30 µM | > 30 µM
3 | Cc1nn(Cc2ccc(S(=O)(=O)N(C)C)cc2)c(C)c1C/C(F)=C/CN [Compound 10, (Z)-4-((4-(4-amino-2-fluorobut-2-en-1-yl)-3,5-dimethyl-1H-pyrazol-1-yl)methyl)-N,N-dimethylbenzenesulfonamide hydrochloride] | > 10 µM | < 10 µM
4 | Cc1nn(C/C(F)=C/CN)c(C)c1Cc1cc(F)c(S(=O)(=O)N(C)C)cc1F [Compound 19, (Z)-4-((1-(4-amino-2-fluorobut-2-en-1-yl)-3,5-dimethyl-1H-pyrazol-4-yl)methyl)-2,5-difluoro-N,N-dimethylbenzenesulfonamide hydrochloride] | > 30 µM | > 30 µM
5 | CCOC(=O)c1nn(C/C(F)=C/CN)c(C)c1Cc1ccc(S(=O)(=O)N(C)C)cc1 [Compound 28, (Z)-ethyl 1-(4-amino-2-fluorobut-2-enyl)-4-(4-(N,N-dimethylsulfamoyl)benzyl)-5-methyl-1H-pyrazole-3-carboxylate hydrochloride] | > 30 µM | > 30 µM
6 | CCOC(=O)c1c(Cc2ccc(S(=O)(=O)N(C)C)cc2)c(C)nn1C/C(F)=C/CN [Compound 27, (Z)-ethyl 1-(4-amino-2-fluorobut-2-enyl)-4-(4-(N,N-dimethylsulfamoyl)benzyl)-3-methyl-1H-pyrazole-5-carboxylate hydrochloride] | > 30 µM | > 30 µM
7 | Cc1nn(C/C(F)=C/CN)c(C)c1Cc1ccc(S(=O)(=O)N2CCCC2)cc1 [Compound 7, (Z)-4-(3,5-dimethyl-4-(4-(pyrrolidin-1-ylsulfonyl)benzyl)-1H-pyrazol-1-yl)-3-fluorobut-2-en-1-amine hydrochloride] | > 30 µM | > 10 µM
8 | Cc1nn(C/C(F)=C/CN)c(C(C)O)c1Cc1ccc(S(=O)(=O)N(C)C)c(Cl)c1 (single isomer, unassigned) [Compound 53, (Z)-4-((1-(4-amino-2-fluorobut-2-en-1-yl)-5-(1-hydroxyethyl)-3-methyl-1H-pyrazol-4-yl)methyl)-2-chloro-N,N-dimethylbenzenesulfonamide hydrochloride] | > 30 µM | > 30 µM
9 | Cc1c(Cc2ccc(S(=O)(=O)N(C)C)cc2)c(C(=O)O)nn1C/C(F)=C/CN [Compound 31, (Z)-1-(4-amino-2-fluorobut-2-enyl)-4-(4-(N,N-dimethylsulfamoyl)benzyl)-5-methyl-1H-pyrazole-3-carboxylic acid hydrochloride] | > 30 µM | > 30 µM
10 | Cc1nn(C/C(F)=C/CN)c(C)c1Cc1ccc(S(=O)(=O)NC(C)C)cc1 [Compound 11, (Z)-4-((1-(4-amino-2-fluorobut-2-en-1-yl)-3,5-dimethyl-1H-pyrazol-4-yl)methyl)-N-isopropyl benzenesulfonamide hydrochloride] | > 30 µM | < 10 µM
11 | Cc1nn(C/C(F)=C/CN)c(C)c1Cc1ccc(S(=O)(=O)N(C)C)c(OC(F)(F)F)c1 [Compound 17, (Z)-4-((1-(4-amino-2-fluorobut-2-en-1-yl)-3,5-dimethyl-1H-pyrazol-4-yl)methyl)-N,N-dimethyl-2-(trifluoromethoxy)benzenesulfonamide hydrochloride] | > 30 µM | > 10 µM
12 | Cc1nn(C/C(F)=C/CN)c(C)c1Cc1ccc(S(=O)(=O)N(C)C(C)C)cc1 [Compound 8, (Z)-4-((1-(4-amino-2-fluorobut-2-en-1-yl)-3,5-dimethyl-1H-pyrazol-4-yl)methyl)-N-isopropyl-N-methylbenzenesulfonamide hydrochloride] | > 30 µM | > 10 µM
13 | Cc1nn(Cc2ccc(S(C)(=O)=O)c(Cl)c2)c(C)c1C/C(F)=C/CN [Compound 24, (Z)-4-(1-(3-chloro-4-(methylsulfonyl)benzyl)-3,5-dimethyl-1H-pyrazol-4-yl)-3-fluorobut-2-en-1-amine hydrochloride] | > 30 µM | > 30 µM
14 | Cc1nn(C/C(F)=C/CN)c(C(C)O)c1Cc1ccc(S(=O)(=O)N(C)C)c(Cl)c1 (single isomer, unassigned) [Compound 52, (Z)-4-((1-(4-amino-2-fluorobut-2-en-1-yl)-5-(1-hydroxyethyl)-3-methyl-1H-pyrazol-4-yl)methyl)-2-chloro-N,N-dimethylbenzenesulfonamide hydrochloride] | > 30 µM | > 30 µM
15 | CNS(=O)(=O)c1ccc(Cn2nc(C)c(C/C(F)=C/CN)c2C)cc1Cl [Compound 22, (Z)-4-((4-(4-amino-2-fluorobut-2-en-1-yl)-3,5-dimethyl-1H-pyrazol-1-yl)methyl)-2-chloro-N-methylbenzenesulfonamide hydrochloride] | > 30 µM | > 10 µM
16 | CN(C)S(=O)(=O)c1ccc(-c2cnn(C/C(F)=C/CN)c2)cc1 [Compound 1, (Z)-4-(1-(4-amino-2-fluorobut-2-en-1-yl)-1H-pyrazol-4-yl)-N,N-dimethyl benzenesulfonamide hydrochloride] | > 10 µM | < 10 µM
17 | CNS(=O)(=O)c1ccc(Cn2nc(C)c(C/C(F)=C/CN)c2C)c(Cl)c1 [Compound 20, (Z)-4-((4-(4-amino-2-fluorobut-2-en-1-yl)-3,5-dimethyl-1H-pyrazol-1-yl)methyl)-3-chloro-N-methylbenzenesulfonamide hydrochloride] | > 30 µM | < 10 µM
18 | Cc1nn(Cc2ccc(S(C)(=O)=O)cc2Cl)c(C)c1C/C(F)=C/CN [Compound 21, (Z)-4-(1-(2-chloro-4-(methylsulfonyl)benzyl)-3,5-dimethyl-1H-pyrazol-4-yl)-3-fluorobut-2-en-1-amine hydrochloride] | > 30 µM | < 10 µM
